Patent US12691101B2, “Compound and method for preventing or treating of respiratory diseases comprising the same as an active ingredient” (YONSEI UNIVERSITY, UNIVERSITY - INDUSTRY FOUNDATION (UIF), priority 2019, dated 2026)

What was measured:
human 5-HT2A = biological target: T1, human 5-HT2A (Homo sapiens, UniProt P28223); assay: 5-HT2A activity in FRT cells; type: cell-based; conditions: pretreated 10 minutes
T1 construct: expressed in transfected cells; host or cells: FRT cells co-expressing ANO1(abc) and YFP-F46L/H148Q/I152L
Description: (A) The inhibition of mouse pendrin (mPDS)-mediated Cl^−/I^− exchange activity by F56 was measured in CHO-K1 cells (mean±S.E., n=5). The indicated concentration of F56 was pretreated for 10 minutes. (B) Summary of dose-response for inhibition of the human pendrin (hPDS)-mediated (closed circle, FIG. (a), C) and mPDS-mediated (open circle) Cl^−/I^− exchange activity. (C-F) Representative traces of intracellular pH in CHO-K1 cells expressing SLC26A3, SLC26A6, SLC26A7 and SLC26A9 were shown. The application of Cl^− free solution induced intracellular alkalization by Cl^−/HCO3^− exchange. The indicated concentration of F56 was pretreated for 10 minutes. (G) the effect of F56 (100 μM) on the CFTR chloride channel activity was measured in FRT cells expressing human CFTR. The CFTR current was activated by 20 μM forskolin and was inhibited by 10 μM CFTRinh-172. (H) The effect of F56 (100 μM) on the AN01 chloride channel activity was measured in FRT cells expressing human AN01. Before 10 minutes prior to AN01 activation by 100 μM ATP, F56 was added. (Right) Peak current summary (mean±S.E., n=3). (I) The effect of F56 on the hERG (Kv11.1) potassium channel activity was measured in HEK293T cells expressing human Kv11.1 (mean±S.E., n=4). […] (J) The effect of F56 on the 5-HT2A channel activity was measured in FRT cells expressing human 5-HT2A (mean±S.E., n=4). […]

[1] = system: LPS-induced acute lung injury mice; assay: LPS-induced ALI in mouse model; type: in vivo
Description: Mice were slightly anesthetized by isoflurane inhalation (Abbott Laboratory), and were maintained in a supine position with the head raised. LPS (Escherichia coli, 0111: B4, Sigma) (10 mg/kg) in 50 μL PBS was administered by intranasal (i.n.) inhalation. As the control group, 50 μL sterile PBS was intranasally provided. With the aid of a microsyringe from Hamilton, the administration solution was gradually released into the nostrils. In case of the pretreatment model, F56 (10 mg/kg) in 50 μL DMSO was intraperitoneally (i.p) administered before 1 hour of LPS inhalation. In case of the post-treatment model, two doses of F56 were administered at 6 hours and 12 hours after LPS inhalation. The mice of the pretreatment group were euthanized and in 48 hours after LPS inhalation, the lung was harvested. In the post-treatment model, euthanasia and sample collection occurred 24 hours after LPS administration. For SCN^− experiment, after F56 treatment, […]
All mice were euthanized with fetal excessive amount of ketamine and xylazine. BALF was obtained by tracheal cannula using 1 mL sterile saline solution. BALF was centrifuged (4° C., 3000 rpm, 10 minutes) and the supernatant was stored at −80° C. for an additional analysis. The cell pellet was recomposed in 100 μL PBS, and used for the number of cells and cytospin sample. The total number of cells of each sample was determined using a hemocytometer (Marienfield), according to the manufacturer's protocol. Each sample in a 90 μL split amount was transferred to a slide chamber, and then the slide was inserted into the cytospin with outward facing. The slide was centrifuged at 800 rpm for 5 minutes, and then removed from the cell centrifuge, and dried before staining. The cytospin was prepared with a cell centrifuge (Shandon Cytospin 4 cytocentrifuge, Thermo Scientific, Waltham, MA, USA) and stained with Diff-Quik Stain Set (Dade Behring, Newark, DE, USA) to evaluate inflammation. The protein concentration of BAL supernatant was measured using BCA analysis (Thermo Fischer Scientific). 2 microliters of each sample and 198 μL of a working reagent were pipetted in a microplate well and completely mixed in a plate shaker for […]. After culturing at 37° C. for 30 minutes, the plate was cooled and the absorbance was read at 562 nm in a spectrophotometer.
The right lung was isolated and the pulmonary vasculature structure was flushed with saline solution under low pressure and stored at −80° C. before protein extraction. The left lung was inflated via tracheostomy with low-meting agarose (4%) in PBS at 25 cm H2O pressure until the pleural margin was sharpened. Then, the lung was excised and fixed overnight in 10% formaldehyde in PBS and embedded in paraffin for 5 μm sections. The left lung section was stained with H&E and subjectively evaluated with an optical microscope. Histopathology was reviewed in a blind method by two qualified researchers. Five easily identifiable pathological processes were scored using the weighted scale presented in the official ATS workshop report. Lung sections were processed using anti-rabbit SLC26A4 (ab98091, abcam) antibody for immunohistochemistry.
In the lung lysates, the level of macrophage inflammatory protein (MIP-2), interleukin-1β (IL-1β […] and tumor necrosis factor α (TNF-α) was measured using an ELISA kit (Millipore), according to the manufacturer's instructions.
The lung tissue was harvested and dissolved in a homogenization buffer (PRO-PREP™ extraction solution, iNtRON Biotechnology). The sample was centrifuged at 4° C. for 30 minutes at 13000 g. The supernatant protein concentration was determined by BCA analysis (Thermo Fisher Scientific). The same amount of protein was separated by SDS/PAGE and transferred to a nitrocellulose membrane. […]

[2] = post-treatment 10 mg/kg i.p. at 6 and 12 hours after LPS, 24 hours after LPS
[3] = pretreatment 10 mg/kg i.p. 1 hour before LPS, 48 hours after LPS, versus vehicle

effect on 5-HT2A activity (human 5-HT2A): not affected
Compound: CC(C)(C)c1ccc(C2=NC(=Cc3cccs3)C(=O)O2)cc1 [F56, 2-(4-(tert-butyl)phenyl)-4-(thiophen-2-ylmethylene)oxazol-5(4H)-one]
level of pro-inflammatory cytokine in lung lysates (IL-1β, MIP-2, IL-6, TNF-α) ([1]; F56 pretreated versus vehicle (DMSO) after LPS): reduced
Phospho-Iκ expression in lung lysates ([1]; F56 treatment before LPS): significantly reduced
BALF protein concentration [1, 2]: considerably reduced
BALF total cell number [1, 2]: considerably reduced
lung injury score [1, 2]: considerably reduced
BAL protein concentration level [1, 3]: reduced
BAL total cell number [1, 3]: reduced
lung injury score [1, 3]: significantly reduced
